From patent US20020052325A1, “Anticonvulsant derivatives useful in maintaining weight loss” (priority 1999, published 2002)
Where two headings read alike, the source gives them in different places.

Key:
[1] = overweight individuals; cited from earlier work
[2] = tested on: simple and complex partial seizures and secondarily generalized seizures; conditions: adjunctive therapy or monotherapy, human epilepsy; cited from earlier work
[3] = tested on: seizures; conditions: several rodent models of epilepsy; cited from earlier work
[4] = Weight loss in patients treated with topiramate as adjunctive therapy in epilepsy; assay type: in vivo, human
Method: Further, carboxylic acids and aldehydes of the formulae RCOOH and RCHO may be reduced to compounds of the formula RCH2OH by standard reduction techniques, e.g. reaction with lithium aluminum hydride, sodium borohydride or borane-THF complex in an inert solvent such a diglyme, THF or toluene at a temperature of about 0° to 100° C., e.g. as described by H. O. House in “Modern Synthetic Reactions”, 2nd Ed., pages 45 to 144 (1972). In patients treated with topiramate as an adjunctive therapy in epilepsy (n=1319), mean weight loss of 4.6% of baseline weight was observed. The mean daily dosage of topiramate was 621.9 mg/day and the mean duration of dosing was 688.8 days. […] On topiramate treatment, there is gradual weight loss over time, with maintenance of the weight lost to 24 months of therapy; thus the mean percentage decrease in weight for all subjects (n=1319) was 4.6%, with similar weight loss maintained at one year (4.9%) and two years (4.5%) of treatment. This pattern is also seen in those patients with weight in excess of 100 kg at baseline (n=127), who lost a mean of 8.4% weight overall, with loss of 9.4% at one year and 9.9% at two years.

[5] = tested on: seizures; conditions: animal model of kindled epilepsy; cited from earlier work

In the case of `CC1(C)O[C@@H]2[C@@H](CO[C@@]3(COS(N)(=O)=O)OC(C)(C)O[C@@H]23)O1` [topiramate, 2,3:4,5-bis-O-(1-methylethylidene)-β-D-fructopyranose sulfamate], the weight reduction [1] is listed as “effectively reduce the weight”, the “efficacy in treating seizures” value [2] is listed as “effective as adjunctive therapy or as monotherapy” and the seizure block [3] is listed as “effectively block seizures”. The “mean percentage decrease in weight” value ([4]; all subjects (n=1319), at one year of treatment) was 4.9%, the “mean percentage decrease in weight” value ([4]; all subjects (n=1319), at two years of treatment) was 4.5% and the “mean weight loss of baseline weight” value ([4]; all subjects (n=1319), overall, mean daily dosage 621.9 mg/day, mean duration of dosing 688.8 days) was 4.6%. The “mean decrease in weight” value ([4]; subjects >100 kg at baseline (n=127), at one year) was 9.4%, the “mean decrease in weight” value ([4]; subjects >100 kg at baseline (n=127), at two years) was 9.9% and the “mean decrease in weight” value ([4]; subset of subjects weighing >100 kg at baseline (n=127), overall, mean daily dose 873.5 mg/day, mean duration of dosing 881.8 days) was 8.4%. The seizure block [5] was “effectively block seizures”.
